Consider 18 compounds from patent publication US4277465A, “Adjuvant for promoting absorption of therapeutically active substances through the digestive tract” (Kyoto Yakuhin Kogyo Kabushiki Kaisha, priority 1978, dated 1981).

Common to all, as to type: in vivo
Data set [1] in a line: Rectal insulin suppositories (Recipes 21-34), glucose response. As to conditions: rectal suppository 6 I.U. insulin. As to the method: |Enamine derivative (I) | As indicated in | Table 12 […] The above components were used to prepare rectal suppositories in accordance with established pharmaceutical practice. The suppositories were administered to rabbits and dogs by rectal route. […] The test was conducted by the glucose oxidase method.

The nature of data set [2]: Rectal suppositories of AB-PC-Na with enamine derivative, concentration in blood. As to conditions: AB-PC-Na 75mg, dog. As to the method: These suppositories were rectally administered to dogs and the absorbabilities of the active components were investigated by measuring the blood concentrations. The blood concentrations were measured in conformity with the biological assay method in the Antibiotic Standard of Japan. The cup method was employed with Sarcina lutea for penicillins and Bacillus subtilis for cephalosporins.

The nature of data set [3]: Rectal insulin suppositories (Recipes 35-41), glucose response. The conditions noted are these: rabbit 2.5-3kg; rectal suppository 6 I.U. insulin; enamine derivative 0.025g (5%). The text has this: These suppositories were rectally administered to rabbits (R, 2.5-3kg) and dogs (D, 12-13kg).
Data set [4] can be described thus: Rectal suppositories of CET-Na with enamine derivative, concentration in blood. The conditions noted are these: dog. Here is the method: These suppositories were rectally administered to dogs and the absorbabilities of the active components were investigated by measuring the blood concentrations.
The blood concentrations were measured in conformity with the biological assay method in the Antibiotic Standard of Japan. The cup method was employed with Sarcina lutea for penicillins and Bacillus subtilis for cephalosporins.

[5] abbreviates: enamine derivative 120mg (10%), base SB-W 1005mg.
[6] abbreviates: enamine derivative 60mg (5%), base Witepsol H-15 1065mg.
Where [7] appears, read: CET-Na 75mg, enamine derivative 60mg (5%), base Witepsol H-15 1065mg.
[8] abbreviates: enamine derivative 120mg (10%), base Witepsol H-15 1005mg.
The mark [9] stands for this setting: CET-Na 500mg, enamine derivative 150mg (10%), base Witepsol H-15 850mg.

Consider `CCOC(=O)C=C(C)N[C@@H](Cc1c[nH]cn1)C(=O)[O-].[Na+]` [Compound 28, α-N-(1-Methyl-2-ethoxycarbonylvinyl)-L-histidine sodium salt], for which, in data set [1] (rabbit, enamine derivative 10%), the “Blood glucose response (6 I.U.)” value turned out to be 30%, the “Time course: Lowest level” value is 60 to 90 min, the “Time course: Onset” value turned out to be 30 min and the “Time course: Return to pre-medication level” value (“Time course: Return” for short) worked out at 180 min.
With `CCOC(=O)C=C(C)N[C@@H](Cc1c[nH]c2ccccc12)C(=O)[O-].[Na+]` [Compound 27, α-N-(1-Methyl-2-ethoxycarbonylvinyl)-L-tryptophan sodium salt], in data set [1] (rabbit, enamine derivative 10%), the “Blood glucose response (6 I.U.)” value is 30%, the “Time course: Lowest level” value is 60 to 90 min, the “Time course: Onset” value turned out to be 30 min and the “Time course: Return” value came to 180 min. Also, in data set [2] (setting [5]), the “Concentration in blood, 15 min.” value is 1600 ng/mL; the “Concentration in blood, 30 min.” value was 1500 ng/mL; the “Concentration in blood, 60 min.” value was determined as 740 ng/mL; the “Concentration in blood, 120 min.” value amounted to 400 ng/mL.
In the case of `CCOC(=O)C=C(C)NCCCCCCCCCCC(=O)[O-].[Na+]` [Compound 30, N-(1-Methyl-2-ethoxycarbonylvinyl)-11-aminoundecanoic acid sodium salt], in data set [1] (rabbit, enamine derivative 10%), the “Time course: Lowest level” value lay within 60 to 90 min, the “Time course: Onset” value turned out to be 30 min and the “Time course: Return” value turned out to be 180 min.
On the same counts, the results for `CCOC(=O)C=C(C)N[C@H](C(=O)[O-])C(C)C.[Na+]` [Compound 26, N-(1-Methyl-2-ethoxycarbonylvinyl)-L-valine sodium salt] are 60 to 90 min, 30 min and 180 min.
With `CCOC(=O)C=C(C)N[C@@H](CCCNC(=N)N)C(=O)O` [Compound 29, α-N-(1-Methyl-2-ethoxycarbonylvinyl)-L-arginine], in data set [1] (rabbit, enamine derivative 5%), the “Blood glucose response (6 I.U.)” value is reported as 40-50%, the “Time course: Lowest level” value lay in the range of 60 to 90 min, the “Time course: Onset” value was found to be 15 min and the “Time course: Return” value was 210 min. In data set [2] (setting [5]), the “Concentration in blood, 15 min.” value is 500 ng/mL; the “Concentration in blood, 30 min.” value came out at 530 ng/mL; the “Concentration in blood, 60 min.” value worked out at 610 ng/mL; the “Concentration in blood, 120 min.” value came to 410 ng/mL.
Turning to `CC(=CC(=O)OCC(O)CO)NCC(=O)[O-].[Na+]` (stereo not drawn) [Compound 38, N-[1-Methyl-2-(2,3-dihydroxypropoxycarbonyl)vinyl]glycine sodium salt], in data set [3], the “Blood glucose response (6 I.U.)” value is reported as 45-55%, the “Time course: Lowest level” value is 45 to 60 min, the “Time course: Onset” value turned out to be 15 min and the “Time course: Return” value came out at 150 min.
For `CCOC(=O)C=C(C)N[C@@H](CO)C(=O)[O-].[Na+]` [Compound 31, N-(1-Methyl-2-ethoxycarbonylvinyl)-L-serine sodium salt], in data set [1] (rabbit, enamine derivative 10%), the “Time course: Lowest level” value was 60 to 90 min, the “Time course: Onset” value was found to be 30 min and the “Time course: Return” value worked out at 180 min. In data set [2] (setting [6]), the “Concentration in blood, 15 min.” value was 700 ng/mL; the “Concentration in blood, 30 min.” value is 380 ng/mL; the “Concentration in blood, 60 min.” value is 240 ng/mL; the “Concentration in blood, 120 min.” value came out at 90 ng/mL.
Take `CCOC(=O)C=C(C)N[C@@H](CC(C)C)C(=O)[O-].[Na+]` [Compound 21, N-(1-Methyl-2-ethoxycarbonylvinyl)-L-leucine sodium salt]: in data set [1] (dog, enamine derivative 1%), the “Blood glucose response (6 I.U.)” value is listed as 35-45%, the “Time course: Lowest level” value lay within 60 to 90 min, the “Time course: Onset” value was determined as 30 min and the “Time course: Return” value came out at 180 min.
Take `CCOC(=O)C=C(C)NC(C(=O)[O-])c1ccccc1.[Na+]` (racemic) [Compound 24, N-(1-Methyl-2-ethoxycarbonylvinyl)-DL-phenylglycine sodium salt]: in data set [1] (rabbit, enamine derivative 1%), the “Time course: Lowest level” value was 30 to 60 min, the “Time course: Onset” value amounted to 15 min and the “Time course: Return” value amounted to 180 min.
`CCOC(=O)C=C(C)N[C@H](C(=O)[O-])[C@@H](C)O.[Na+]` [Compound 22, N-(1-Methyl-2-ethoxycarbonylvinyl)-L-threonine sodium salt]: in data set [1] (rabbit, enamine derivative 5%), the “Time course: Lowest level” value was 45 to 75 min, the “Time course: Onset” value was 30 min and the “Time course: Return” value stood at 180 min. Besides, in data set [4] (setting [7]), the “Concentration in blood, 15 min.” value was 750 ng/mL; the “Concentration in blood, 30 min.” value was determined as 570 ng/mL; the “Concentration in blood, 60 min.” value stood at 310 ng/mL.
For `CCOC(=O)C=C(C)NC(C)C(=O)[O-].[Na+]` (racemic) [Compound 18, N-(1-Methyl-2-ethoxycarbonylvinyl)-DL-alanine sodium salt], in data set [1] (rabbit, enamine derivative 1%), the “Time course: Lowest level” value lay within 45 to 60 min, the “Time course: Onset” value turned out to be 30 min and the “Time course: Return” value was determined as 180 min.
For `CCOC(=O)C=C(C)N[C@@H](CCSC)C(=O)[O-].[Na+]` [Compound 23, N-(1-Methyl-2-ethoxycarbonylvinyl)-L-methionine sodium salt], in data set [1] (rabbit, enamine derivative 10%), the “Time course: Lowest level” value lay in the range of 60 to 90 min, the “Time course: Onset” value came to 30 min and the “Time course: Return” value was found to be 180 min. For the same compound, in data set [2] (setting [6]), the “Concentration in blood, 15 min.” value came to 520 ng/mL; the “Concentration in blood, 30 min.” value was determined as 340 ng/mL; the “Concentration in blood, 60 min.” value turned out to be 180 ng/mL; the “Concentration in blood, 120 min.” value was determined as 80 ng/mL.
Regarding `CC(=CC(=O)OC(C)C(=O)O)N[C@@H](CCCNC(=N)N)C(=O)O` (stereo partly drawn) [Compound 35, α-N-(1-Methyl-2-(1-carboxy-ethoxycarbonyl)vinyl]-L-arginine], in data set [3], the “Blood glucose response (6 I.U.)” value was 20-30%, the “Time course: Lowest level” value was in the range of 30 to 60 min, the “Time course: Onset” value is 15 min and the “Time course: Return” value turned out to be 120 min.
Turning to `CC(=CC(=O)NCCO)N[C@@H](Cc1ccccc1)C(=O)[O-].[Na+]` [Compound 36, N-[1-Methyl-2-(2-hydroxyethylcarbamoyl)vinyl]-L-phenylalanine sodium salt], in data set [3], the “Blood glucose response (6 I.U.)” value is 20-30%, the “Time course: Lowest level” value is 30 to 60 min, the “Time course: Onset” value turned out to be 15 min and the “Time course: Return” value came out at 120 min. Further, in data set [2] (setting [8]), the “Concentration in blood, 15 min.” value was found to be 1450 ng/mL; the “Concentration in blood, 30 min.” value was 1530 ng/mL; the “Concentration in blood, 60 min.” value was determined as 800 ng/mL; the “Concentration in blood, 120 min.” value is 400 ng/mL.
In the case of `CCOC(=O)C=C(C)N[C@H](C(=O)[O-])[C@@H](C)CC.[Na+]` [Compound 20, N-(1-Methyl-2-ethoxycarbonylvinyl)-L-isoleucine sodium salt], in data set [1] (dog, enamine derivative 2%), the “Blood glucose response (6 I.U.)” value is 25-35%, the “Time course: Lowest level” value was 120 min, the “Time course: Onset” value was 60 to 90 min and the “Time course: Return” value was in the range of 180 to 240 min. Further, in data set [4] (setting [9]), the “Concentration in blood, 15 min.” value is 9000 ng/mL; the “Concentration in blood, 30 min.” value was found to be 6230 ng/mL; the “Concentration in blood, 60 min.” value amounted to 2910 ng/mL; the “Concentration in blood, 120 min.” value was determined as 1000 ng/mL.
As for `CCOC(=O)C=C(C)N[C@@H](C)C(=O)[O-].[Na+]` [Compound 19, N-(1-Methyl-2-ethoxycarbonylvinyl)-L-alanine sodium salt], in data set [1] (rabbit, enamine derivative 1%), the “Time course: Lowest level” value lay in the range of 45 to 60 min, the “Time course: Onset” value was determined as 30 min and the “Time course: Return” value was found to be 180 min.
Regarding `CCOC(=O)C(C)OC(=O)C=C(C)NC(C)C(=O)[O-].[Na+]` (racemic) [Compound 33, N-[1-Methyl-2-(1-ethoxycarbonyl-ethoxycarbonyl)vinyl]-DL-alanine sodium salt], in data set [3], the “Blood glucose response (6 I.U.)” value is listed as 45-55%, the “Time course: Lowest level” value fell in the range of 45 to 60 min, the “Time course: Onset” value was 15 min and the “Time course: Return” value worked out at 150 min.
In the case of `CCOC(=O)C=C(C)N[C@@H](Cc1ccccc1)C(=O)[O-].[Na+]` [Compound 25, N-(1-Methyl-2-ethoxycarbonylvinyl)-L-phenylalanine sodium salt], in data set [1] (rabbit, enamine derivative 1%), the “Time course: Lowest level” value was 45 to 90 min, the “Time course: Onset” value is 30 min and the “Time course: Return” value turned out to be 180 min.
